The target of this test is T1, APOL1 (Homo sapiens, UniProt O14791).
T1 sequence (O14791 1-398 S342G/I384M): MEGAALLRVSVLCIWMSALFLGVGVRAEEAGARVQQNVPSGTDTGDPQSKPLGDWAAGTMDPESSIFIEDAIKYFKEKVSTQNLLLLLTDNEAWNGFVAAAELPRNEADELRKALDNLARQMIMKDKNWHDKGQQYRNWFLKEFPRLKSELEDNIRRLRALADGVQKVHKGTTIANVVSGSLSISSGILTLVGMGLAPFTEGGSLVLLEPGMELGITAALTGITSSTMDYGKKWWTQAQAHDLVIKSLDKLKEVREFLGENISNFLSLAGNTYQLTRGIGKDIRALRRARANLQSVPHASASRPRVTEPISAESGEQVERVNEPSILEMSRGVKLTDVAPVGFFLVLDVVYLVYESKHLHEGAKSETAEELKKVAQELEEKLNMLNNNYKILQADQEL
In words: MultiTox-Fluor Multiplex Cytotoxicity Assay in tet-inducible APOL1 T-REx-HEK293 cells. The note with it: tet-inducible transgenic APOL1 T-REx-HEK293 cell lines, 50 ng/mL tet, 24 hours, ratio of dead to live cells; read-out: IP50 (nM) (i.e., IC50 for cell proliferation). The test is classed as cell-based. How it is done: The MultiTox-Fluor Multiplex Cytotoxicity Assay is a single-reagent-addition, homogeneous, fluorescence assay that measures the number of live and dead cells simultaneously in culture wells. The assay measures cell viability and cytotoxicity by detecting two distinct protease activities. The live-cell protease activity is restricted to intact viable cells and is measured using a fluorogenic, cell-permeant peptide glycyl-phenylalanylamino fluorocoumarin (GF-AFC) substrate. The substrate enters intact cells, where it is cleaved to generate a fluorescent signal proportional to the number of living cells. […] A second, cell-impermeant, fluorogenic peptide substrate (bis-AAF-R110 Substrate) is used to measure dead-cell protease that has been released from cells that have lost membrane integrity. A ratio of dead to live cells is used to normalize data.
Briefly, the tet-inducible transgenic APOL1 T-REx-HEK293 cell lines were incubated with 50 ng/mL tet to induce APOL1 in the presence of 3-(2-(4-fluorophenyl)-1H-indol-3-yl)-N-((3S,4R)-4-hydroxy-2-oxopyrrolidin-3-yl)propenamide at 10.03, 3.24, 1.13, 0.356, 0.129, 0.042, 0.129, 0.0045, 0.0015, 0.0005 μM in duplicate for 24 hours in a humidified 37° C. incubator. The MultiTox reagent was added to each well and placed back in the incubator for an additional 30 minutes. The plate was read on the EnVision plate reader. A ratio of dead to live cells was used to normalize, and data was imported, analyzed, and fit using Genedata Screener (Basel, Switzerland) software. Data was normalized using percent of control, no tet (100% viability), and 50 ng/mL tet treated (0% viability),and fit using Smart Fit. The reagents, methods, and complete protocol for the MultiTox assay are described below.
Human embryonic kidney (HEK293) cell lines containing a tet-inducible expression system (T-REx™; Invitrogen, Carlsbad, CA) and Adeno-associated virus site 1 pAAVS1-Puro-APOL1 G0 or pAAVS1-Puro-APOL1 G1 or pAAVS1-Puro-APOL1 G2 Clones G0 DC2.13, Gi DC3.25, and G2 DC4.44 were grown in a T-225 flask at ˜90% confluency in cell growth media (DMEM, 10% Tet-free FBS, 2 mM L-glutamine, 100 Units/mL penicillin-streptomycin, 5 μg/mL blasticidin S HCl, 1 μg/mL puromycin dihydrochloride). Cells were washed with DPBS and then trypsinized to dissociate from the flask. Media was used to quench the trypsin, cells were then pelleted at 200 g and resuspended in fresh cell assay media (DMEM, 2% Tet-free FBS, 2 mM L-glutamine, 100 Units/mL penicillin-streptomycin). Cells were counted and diluted to 1.17×10^6 cells/mL. 20 μL of cells (23,400/well) were dispensed in every well of a 384-well Poly-D-Lysine coated plate using the Multidrop dispenser. The plates were then incubated at room temperature for one hour.
Tetracycline is needed to induce APOL1 expression. 1 mg/mL tet stock in water was diluted to 250 ng/mL (5×) in cell assay media. 60 μL of cell assay media (no tet control) was dispensed in columns 1 and 24, and 60 μL of 5× tet in 384-PP-round bottom plate was dispensed in columns 2 to 23 with the Multidrop dispenser.
Assay ready plates from the Global Compound Archive were ordered using template 384_APOLICell_DR10n2_50 uM_v3. Compounds were dispensed at 200 nL in DMSO. The final top concentration was 10 μM with a 10 point 3-fold dilution in duplicate in the MultiTox assay.
20 μL was transferred from the 5× tet plate to the ARP and mixed, then 5 μL of 5× tet and the compounds were transferred to the cell plate and mixed using the Bravo. The cell plate was placed in the humidified 37° C. 5% CO2 incubator for 24 hours.
The MultiTox-Fluor Multiplex Cytotoxicity Assay was performed in accordance with the manufacturer's protocol. After cells were incubated with tet and compound for 24 hours, 25 μL of 1x MultiTox reagent was added to each well using the Multidrop dispenser; the plates were placed on a plate shaker (600 rpm) for 2 minutes, then centrifuged briefly and placed back in the 37° C. incubator for 30 minutes. […]
`C[C@H]1CC2(C[C@@H](c3cn(C)nn3)N1)OC(C(N)=O)c1ccc(Cl)cc12` (stereo partly drawn) [Compound 41, (2′S,6′S)-5-chloro-2′-methyl-6′-(1-methyltriazol-4-yl)spiro[1H-isobenzofuran-3,4′-piperidine]-1-carboxamide]: the IC50 is under 50 nM. In the case of `C[C@H]1C[C@@]2(C[C@@H](c3cn(C)nn3)N1)OCCc1cc(C(F)(F)F)ccc12` [Compound 23] it was under 50 nM; in that of `C[C@H]1C[C@@]2(C[C@@H](c3cn(C)nn3)N1)OC[C@H](O)c1cc(Cl)ccc12` [Compound 26], under 50 nM. In the case of `Cc1ccc2c(c1)CCO[C@@]21C[C@@H](c2cn(C)nn2)N[C@@H](C)C1` [Compound 16] it was under 50 nM; in that of `C[C@H]1CC2(C[C@@H](c3cn(C)nn3)N1)OC(C(N)=O)c1ccc(Cl)cc12` (single isomer, unassigned) [Compound 42, (2′S,6′S)-5-chloro-2′-methyl-6′-(1-methyltriazol-4-yl)spiro[1H-isobenzofuran-3,4′-piperidine]-1-carboxamide], 50 to 500 nM; in that of `C[C@H]1C[C@@]2(C[C@@H](c3cn(C)nn3)N1)C(=O)Nc1cc(Cl)ccc12` [Compound 36, (2′S,3S,6′S)-6-chloro-2′-methyl-6′-(1-methyltriazol-4-yl)spiro[indoline-3,4′-piperidine]-2-one], under 50 nM. In the case of `C[C@H]1C[C@@]2(C[C@@H](c3cn(C)nn3)N1)OCCc1ccc(Cl)cc12` [Compound 10] it was under 50 nM; in that of `COc1cccc2c1[C@]1(C[C@@H](c3cn(C)nn3)N[C@@H](C)C1)OCC2` [Compound 6], over 500 nM; in that of `C[C@H]1C[C@@]2(C[C@@H](c3cn(C)nn3)N1)OCCc1cc(Br)ccc12` [Compound 9], under 50 nM.

As to `C[C@H]1C[C@@]2(C[C@@H](c3ccn(CCS(C)(=O)=O)c3)N1)OCCc1ccc(Cl)c(O)c12` [Compound 4], the IC50 is 50 to 500 nM. Next, `COc1ccc2c(c1)CCO[C@@]21C[C@@H](c2cn(C)nn2)N[C@@H](C)C1` [Compound 5]: under 50 nM; `C[C@H]1C[C@@]2(C[C@@H](c3cn(C)nn3)N1)OCC(O)c1ccc(Cl)cc12` (some centres unmarked) [Compound 29]: 50 to 500 nM; `CC1CC2(CC(c3cnn(CCS(C)(=O)=O)c3)N1)OCCc1ccc(Cl)cc12` (centres unmarked) [Compound 24]: 50 to 500 nM. In the case of `C[C@H]1CC2(C[C@@H](c3cn(C)nn3)N1)OC(C(N)=O)c1cc(Cl)ccc12` (single isomer, unassigned) [Compound 40, (2′S,6′S)-6-chloro-2′-methyl-6′-(1-methyltriazol-4-yl)spiro[1H-isobenzofuran-3,4′-piperidine]-1-carboxamide] it was 50 to 500 nM. Consider `C[C@H]1C[C@@]2(C[C@@H](c3cn(C)nn3)N1)C(=O)Nc1cc(C(F)(F)F)ccc12` [Compound 38, (2′S,3S,6′S)-2′-methyl-6′-(1-methyltriazol-4-yl)-6-(trifluoromethyl)spiro[indoline-3,4′-piperidine]-2-one], for which the IC50 is under 50 nM. Next, `Cc1ccc2c(c1)NC(=O)[C@@]21C[C@@H](c2cn(C)nn2)N[C@@H](C)C1` [Compound 33, (2′S,3S,6′S)-2′,6-dimethyl-6′-(1-methyltriazol-4-yl)spiro[indoline-3,4′-piperidine]-2-one]: under 50 nM. In the case of `C[C@H]1C[C@@]2(C[C@@H](c3cn(C)nn3)N1)OCCc1ccc(Cl)c(O)c12` [Compound 2] it was under 50 nM; in that of `C[C@H]1C[C@@]2(C[C@@H](c3cn(C)nn3)N1)OCC(O)c1ccc(Cl)cc12` (stereo partly drawn) [Compound 30, (1S,2′S,6′S)-7-chloro-2′-methyl-6′-(1-methyl-1H-1,2,3-triazol-4-yl)spiro[isochromane-1,4′-piperidin]-4-ol], 50 to 500 nM; in that of `C[C@H]1C[C@@]2(C[C@@H](c3cn(C)nn3)N1)C(=O)Nc1ccc(C(F)(F)F)cc12` [Compound 37, (2′S,3S,6′S)-2′-methyl-6′-(1-methyltriazol-4-yl)-5-(trifluoromethyl)spiro[indoline-3,4′-piperidine]-2-one], under 50 nM.

With `C[C@H]1CC2(C[C@@H](c3cn(C)nn3)N1)OC(C(N)=O)c1cc(Cl)ccc12` (stereo partly drawn) [Compound 39, (2′S,6′S)-6-chloro-2′-methyl-6′-(1-methyltriazol-4-yl)spiro[1H-isobenzofuran-3,4′-piperidine]-1-carboxamide], the IC50 is under 50 nM.

Consider `C[C@H]1C[C@@]2(C[C@@H](c3cn(C)nn3)N1)OCCc1cc(OS(=O)(=O)C(F)(F)F)ccc12` [Compound 14], for which the IC50 was in the range of 50 to 500 nM. On to `C[C@H]1C[C@@]2(C[C@@H](c3cn(C)nn3)N1)C(=O)Nc1ccccc12` [Compound 32, (2′S,3S,6′S)-2′-methyl-6′-(1-methyltriazol-4-yl)spiro[indoline-3,4′-piperidine]-2-one], for which the IC50 is under 50 nM. `C[C@H]1C[C@@]2(C[C@@H](c3cn(C)nn3)N1)OCCc1cc(O)c(Cl)cc12` [Compound 1]: the IC50 is over 500 nM. Next, `C[C@H]1C[C@@]2(C[C@@H](c3cn(C)nn3)N1)OCCc1cc(C(C)(C)O)ccc12` [Compound 20]: 50 to 500 nM; `C[C@H]1C[C@@]2(C[C@@H](c3cn(C)nn3)N1)OCCc1cccc(O)c12` [Compound 8]: 50 to 500 nM; `C[C@H]1C[C@@]2(C[C@@H](c3cn(C)nn3)N1)OCCc1cc(CO)ccc12` [Compound 22]: over 500 nM. Next, `C[C@H]1C[C@@]2(C[C@@H](c3cn(C)nn3)N1)OC[C@@H](O)c1cc(C(F)(F)F)ccc12` [Compound 27, (1S,2′S,4S,6′S)-2′-methyl-6′-(1-methyl-1H-1,2,3-triazol-4-yl)-6-(trifluoromethyl)spiro[isochromane-1,4′-piperidin]-4-ol]: under 50 nM. Next, `Cc1ccc2c(c1)[C@]1(C[C@@H](c3cn(C)nn3)N[C@@H](C)C1)C(=O)N2` [Compound 34, (2′S,3S,6′S)-2′,5-dimethyl-6′-(1-methyltriazol-4-yl)spiro[indoline-3,4′-piperidine]-2-one]: under 50 nM.

Turning to `C[C@H]1C[C@@]2(C[C@@H](c3cn(C)nn3)N1)OCCc1cc(Cl)ccc12` [Compound 15], the IC50 is under 50 nM.

As for `C[C@H]1C[C@@]2(C[C@@H](c3cn(C)nn3)N1)OCCc1cc(O)ccc12` [Compound 7], the IC50 is 50 to 500 nM. Next, `C[C@H]1C[C@@]2(C[C@@H](c3cnn(CCS(C)(=O)=O)c3)N1)OCCc1cc(O)c(Cl)cc12` [Compound 3]: over 500 nM; `C[C@H]1C[C@@]2(C[C@@H](c3cn(C)nn3)N1)C(=O)Nc1ccc(Cl)cc12` [Compound 35, (2′S,3S,6′S)-5-chloro-2′-methyl-6′-(1-methyltriazol-4-yl)spiro[indoline-3,4′-piperidine]-2-one]: under 50 nM.

The values are drawn from patent US20250084094A1 (Vertex Pharmaceuticals Incorporated, priority 2021, published 2025).
